Common to all, as to type: physicochemical
Series [1] in a line: Solubility of dutasteride in oil (Test Example 1). As to conditions: for solubility at 24 h: oil or lipid, thermodynamic from solid. The procedure:
In order to measure the solubility of dutasteride in oil, the solubility of dutasteride in soybean oil, castor oil, propylene glycol dicaprylate, propylene glycol dicaprate and propylene glycol monolaurate was measured. In a 10 mL vial, a magnetic bar was placed. After 3 mL of the oil was added thereto, approximately 100 mg of dutasteride was added thereto while stirring under a room temperature (25° C.) condition, and the resultant mixture was stirred with 500 rpm or higher. After stirring for 24 hours, 1 mL of the resultant mixture was taken and separated using a centrifuge, and only the supernatant was taken to quantify the amount of dutasteride dissolved in the oil using liquid chromatography.

Series [2] can be described thus: Stability of dutasteride in mixture of oil and surfactant (Test Example 3). To be noted: storage condition not given. On the procedure:
A stability test on the pharmaceutical composition of the comparative example dissolving 0.5 mg of dutasteride in a mixture of 95 mg of propylene glycol monocaprylate and 5 mg of polyoxyl 35 castor oil and stored in a transparent vial, and the pharmaceutical composition of the example including dutasteride, propylene glycol monolaurate and polyoxyl 35 castor oil was carried out by identifying the generation of degradation products under an accelerated condition (40° C., 75% RH) and a stress condition (50° C. 95% RH). As shown in the following Table 5, it was seen that the mixture of propylene glycol monolaurate and a surfactant secured the stability of dutasteride unlike mixtures of surfactant with other oils such as propylene glycol monocaprylate.

Series [3] can be described thus: Test I on stability of dutasteride depending on oil type (Test Example 2). On the procedure: As samples used in the comparison test, a sample dissolving 1.0 mg of dutasteride in 10.0 mg of propylene glycol monolaurate and stored in a transparent vial, and a sample dissolving 1.0 mg of dutasteride in 10.0 mg of caprylic/capric acid mono-di-glyceride and stored in a transparent vial were used.

Setting [4] is: in Propylene Glycol Monocaprylate + Polyoxyl 35 Castor Oil.
[5] abbreviates: in Propylene Glycol Monolaurate + Polyoxyl 35 Castor Oil.

The structures appear in SMILES notation. Values after ≈ are worked out from the molar mass of the structure shown.

The text below walks through data of patent US10512654B2, “Pharmaceutical composition including dutasteride and capsule formulation comprising the same” (YUYU PHARMA, INC., priority 2015, dated 2019).

For the molecule `C[C@]12C=CC(=O)N[C@@H]1CC[C@@H]1[C@@H]2CC[C@]2(C)[C@@H](C(=O)Nc3cc(C(F)(F)F)ccc3C(F)(F)F)CC[C@@H]12` [Dutasteride, 17β-N-(2,5-bis(trifluoromethyl))phenylcarbamoyl-4-aza-5α-androst-1-en-3-one], the “Solubility of Dutasteride” value in series [1] (in Propylene Glycol Dicaprylate, room temperature (25° C.), stirring for 24 hours) was 1130 µg/mL. Moreover, the solubility at 24 h in series [1] (in Propylene Glycol Dicaprate, room temperature (25° C.), stirring for 24 hours) was 770 µg/mL (≈ 1.46 mM); in series [1] (in Propylene Glycol Monolaurate, room temperature (25° C.), stirring for 24 hours) it was 10400 µg/mL (≈ 19.7 mM). Moreover, in series [1] (propylene glycol monolaurate vs other tested (general) oils), the “Solubility in propylene glycol monolaurate compared to other tested oils” value is not below 10 times. The “Amount of Degradation Products (%) After 3 Weeks” value is recorded as 6.2% in series [2] (setting [4]) and “None” in series [2] (setting [5]). The “Amount of Degradation Products (%) After 4 Weeks” value is recorded as 12.1% in series [2] (setting [4]); “None” in series [2] (setting [5]); 0.94% in series [3] (in Caprylic/Capric Acid Mono-Di-Glyceride, Accelerated Condition (40° C., 75% RH)); 1.75% in series [3] (in Caprylic/Capric Acid Mono-Di-Glyceride, Stress Condition (50° C., 95% RH)); “None” in series [3] (in Propylene Glycol Monolaurate, Accelerated Condition (40° C., 75% RH)); “not generated” in series [3] (in Propylene Glycol Monolaurate, Accelerated Condition (40° C., 75% RH), listed as dutasteride). Moreover, the “Amount of Degradation Products (%) After 4 Weeks” value in series [3] (in Propylene Glycol Monolaurate, Stress Condition (50° C., 95% RH)) was determined as 0.32%. The “Stability of dutasteride in propylene glycol monolaurate compared to caprylic/capric acid mono-di-glyceride” value in series [3] (week 4, accelerated (40° C., 75% RH) and stress condition (50° C., 95% RH), in words) is “more superior”.

Usually solubility stands for the concentration that dissolves in the medium under given conditions.
